These results are taken from patent publication US20180171411A1, “GFRalpha1 AS A BIOMARKER FOR CISPLATIN-INDUCED CHEMORESISTANCE AND METASTASIS” (THE BOARD OF REGENTS OF THE UNIVERSITY OF TEXAS SYSTEM, priority 2015, published 2018).

SMILES strings stand for the structures. Peptide text beside a SMILES is read from it. * marks the point of attachment. Cbz = O=C(OCc1ccccc1)*; CH2F = FC*

Format in all cases: cell-based, human
For assay [1], the system named is Caspase-3 activity in control and GFRα1-deficient MG-63 cells. Briefly: Caspase-3 activity (Colorimetric CaspACE assay). The note with it: cisplatin 20 μM 24 hr, ZVAD-FMK 50 μM. The text has this:
FIG. 2. GFRα1 suppresses the chemosensitivity of osteosarcoma cells induced by cisplatin. (a) Generation of GFRα1-deficient osteosarcoma cell lines with GFRα1 shRNA. Both MG-63 and U-2 OS cells were transfected with control or GFRα1 shRNA. Immunoblot analysis of control and GFRα1-deficient stable osteosarcoma cell lysates with antibodies specific for GFRα1 and β-actin. (b) Cell viability of GFRα1-deficient osteosarcoma cells after cisplatin treatment. Control or GFRα1-deficient cells were cultured and treated with different concentrations of cisplatin for 24 hr. Cell viability was measured using the WST-1 assay. The values are represented as a mean±s.d.m. (n=3). ** denotes p<0.05 by t-test. (c) Apoptotic response of GFRα1-deficient osteosarcoma cells after cisplatin treatment. […] Apoptotic cells by FITC-Annexin V staining (top) and viable cells by PI staining (bottom) were analyzed through flow cytometry. […] Cell viability was measured using the WST-1 assay. […] Apoptotic cells by FITC-Annexin V staining (top) and viable cells by PI staining (bottom) were analyzed through flow cytometry. […]
Apoptosis Assays. […] Apoptotic cells were analyzed using a FACSCalibur flow cytometer with CellQuest software (Becton Dickinson, Franklin Lakes, N.J.). […] Caspase 3 activity was analyzed by the Colorimetric CaspACE™ Assay System (Promega, Madison, Wis.) according the manufacturer's instructions. […]

For assay [2], the system named is GFRα1-overexpressing MG-63 clone #4. The experiment in a line: Colony-forming assay in the presence of cisplatin. To be noted: cisplatin 20 μM 10 days; 3-MA (10 μM), Baf (100 nM), CQ (30 μg/ml). The text has this:
FIG. 3. […] Scale bar, 20 μm. […] Scale bar, 20 μm. […] Scale bar, 20 μm.

In assay [3] the test system is LC3-II in GFRα1-overexpressing MG-63 cells. The experiment in a line: Immunoblot of LC3-II in GFRα1-overexpressing cells. The note with it: 3-MA (10 μM) or Baf (100 nM). How it is done: FIG. 3. GFRα1-induced autophagy enhances the chemoresistance of osteosarcoma cells induced by cisplatin. (a) Control and GFRα1-deficient MG-63 cells were transiently transfected with a mRFP-GFP tandem fluorescent-tagged LC3 (mRFP-GFP-LC3) vector and then treated with cisplatin (20μM) for 24 hr. Left, representative images of RFP-LC3 and GFP-LC3 puncta. Scale bar, 20 μm. Right, quantitative analysis of the number of yellow puncta and the number of RFP-LC3 puncta in the combined images. The values are represented as a mean±s.d.m. (n=3). ** denotes p<0.05 by t-test. (b) Control and GFRα1-deficient MG-63 cells were treated with cisplatin (20 μM) for 24 hr and then stained with acridine orange. […] Bottom, quantitative analysis of the number of AVOs. […] (c) Control and GFRα1-deficient MG-63 cells were treated with cisplatin (20 μM) for 24 hr and then analyzed by TEM. Top, representative images of autophagic vacuoles (yellow arrows) detected after cisplatin treatment in control MG-63 cells. […] Bottom, quantitative analysis of the number of autophagic vacuoles. […] (e) Quantitative analysis of the number of yellow puncta and the number of RFP-LC3 puncta in control and GFRα1-overexpressing MG-63 cells. […] Bottom, quantitative analysis of the number of AVOs. […] (h) Control and GFRα1-overexpressing MG-63 cells were treated with cisplatin (20 μM) for 24 hr and then analyzed by TEM. […]
For orientation: Immunoblotting shows a protein as a band on a membrane.

In assay [4] the test system is GFRα1-overexpressing MG-63 cells. Briefly: WST-1 cell viability of GFRα1-overexpressing osteosarcoma cells. The note with it: with DMSO, 3-MA or Baf, then cisplatin 20 μM 24 hr. As to the method:
FIG. 3. GFRα1-induced autophagy enhances the chemoresistance of osteosarcoma cells induced by cisplatin. (a) Control and GFRα1-deficient MG-63 cells were transiently transfected with a mRFP-GFP tandem fluorescent-tagged LC3 (mRFP-GFP-LC3) vector and then treated with cisplatin (20μM) for 24 hr. Left, representative images of RFP-LC3 and GFP-LC3 puncta. Scale bar, 20 μm. Right, quantitative analysis of the number of yellow puncta and the number of RFP-LC3 puncta in the combined images. The values are represented as a mean±s.d.m. (n=3). ** denotes p<0.05 by t-test. (b) Control and GFRα1-deficient MG-63 cells were treated with cisplatin (20 μM) for 24 hr and then stained with acridine orange. Top, representative images of cells stained with acridine orange. Scale bar, 20 μm. Bottom, quantitative analysis of the number of AVOs. The values are represented as a mean±s.d.m. (n=3). ** denotes p<0.05 by t-test. (c) Control and GFRα1-deficient MG-63 cells were treated with cisplatin (20 μM) for 24 hr and then analyzed by TEM. Top, representative images of autophagic vacuoles (yellow arrows) detected after cisplatin treatment in control MG-63 cells. Scale bar, 100 nm. Bottom, quantitative analysis of the number of autophagic vacuoles. The values are represented as a mean±s.d.m. (n=3). ** denotes p<0.05 by t-test. (d) Immunoblot analysis of control and GFRα1-overexpressing osteosarcoma cell lysates with antibodies specific for GFRα1, LC3 and β-actin. […] (e) Quantitative analysis of the number of yellow puncta and the number of RFP-LC3 puncta in control and GFRα1-overexpressing MG-63 cells. […] Bottom, quantitative analysis of the number of AVOs. […] (h) Control and GFRα1-overexpressing MG-63 cells were treated with cisplatin (20 μM) for 24 hr and then analyzed by TEM. Top, representative images of autophagic vacuoles detected after cisplatin treatment in control and GFRα1-overexpressing MG-63 cells. […] Bottom, quantitative analysis of the number of autophagic vacuoles. […] Cell viability was measured using the WST-1 assay. […] Cell viability was measured using the WST-1 assay. […]
In general terms: Tetrazolium assays rely on reduction of a dye to a coloured formazan, in cell work by metabolically active cells.

Regarding `COC(=O)C[C@H](NC(=O)[C@H](C)NC(=O)[C@@H](NC(=O)OCc1ccccc1)C(C)C)C(=O)CF` [ZVAD-FMK] (Cbz-Val-Ala-Asp(OMe)-CH2F), the “Caspase-3 activity increase in cisplatin-treated GFRα1-deficient MG-63 cells” value in assay [1] is reported as “reversed this effect”.
For `CO/C1=C\C(C)=C\[C@@H](C)[C@@H](O)[C@@H](C)C/C(C)=C/C=C/[C@H](OC)[C@@H]([C@@H](C)[C@@H](O)[C@H](C)[C@@]2(O)C[C@@H](O)[C@H](C)[C@@H](C(C)C)O2)OC1=O` [Baf, bafilomycin A1], the number of colonies entry in assay [2] was “effectively reduced”. Further, in assay [3], the “level of LC3-II expression” value was “increased”. Moreover, in assay [4], the “increase of cell proliferation in GFRα1 overexpressing cells” value is “not”.
